Entries after “also recorded” stand apart in the source; their conditions may differ. Ends that are not written are not given here.
Columns and labels:
[1] = tested on: HCT116 cells; test: RPM-FITC immunofluorescence staining of cultured cells (confocal microscopy); format: cell-based; details: 1 hour at 4° C.
Description: Cell Culture: HT29, HCT116, or a 50% mixture of HT29 and HCT116 cells were plated on glass slides (Nalge). […] After washing with wash buffer, cells were blocked with 1% NGS, 0.1% BSA, 0.1% Triton-X100 in PBS. Following the blocking step, wells were incubated with the polyclonal p53 antibody, D10, (Santa Cruz) for 1 hour at room temperature. The wells were washed and incubated with the secondary antibodies GαFITC Alexa 488 (Molecular Probes) and GαMouse Alexa 647 (Molecular Probes) and the nuclear stain Topro-3 (Molecular Probes). Wells were washed and mounted using Pro-Long Anti-fade (Molecular Probes). Slides were analyzed by confocal microscopy.
The peptide then was tested to determine whether it was able to differentiate HT29 from HCT116 cells. In order to distinguish HT29 from HCT116 cells in our immunohistochemical assays, staining was carried out in the presence of the transcription factor, p53. Staining for the protein p53 is a way to visually discriminate HT29 from HCT116 cells, since p53 is mutated and accumulates in HT29 cells but is wild type in HCT116 cells and thus, is rapidly degraded. […] When a mixture of HT29 and HCT116 cells was incubated with RPM-FITC and concurrently analyzed for the presence of p53, cells with the highest level of p53 protein also bound RPM-FITC (FIG. 5A).

[2] = tested on: grossly uninvolved normal colon; test: Peptide-binding assay on frozen tissue sections; set-up: species or system human
Description: (§1) A biopsy of sporadic colon adenocarcinoma, liver and lung sarcoma, and grossly uninvolved colon, liver, lung, and stomach were frozen in optimum cutting temperature (OCT) and […] cryostat sections placed on glass slides. Sections were stained with H&E and untreated adjacent sections were incubated with RPM-FITC. After incubating with RPM-FITC in binding buffer for 45 minutes at 4° C., slides were washed and mounted using Pro-Long Anti-Fade (Molecular Probes). Nuclei were visualized by a quick incubation with Topro-3 (Molecular Probes) present in the last wash. Samples were analyzed by confocal microscopy.

[3] = tested on: human colon tumor; test: Peptide-binding assay on frozen tissue sections; details: frozen sections, 4° C.
Description: as §1

[4] = tested on: HT29 cells; test: RPM-FITC immunofluorescence staining of cultured cells (confocal microscopy); format: cell-based; details: for localisation of peptide in HT29 cells: 100 uM, 1 hour
Description: Cell Culture: HT29, HCT116, or a 50% mixture of HT29 and HCT116 cells were plated on glass slides (Nalge). Wells were incubated with 10 μM of RPM-FITC peptide for 45 minutes at 4° C. or 37° C. After washing with wash buffer, cells were blocked with 1% NGS, 0.1% BSA, 0.1% Triton-X100 in PBS. Following the blocking step, wells were incubated with the polyclonal p53 antibody, D10, (Santa Cruz) for 1 hour at room temperature. The wells were washed and incubated with the secondary antibodies GαFITC Alexa 488 (Molecular Probes) and GαMouse Alexa 647 (Molecular Probes) and the nuclear stain Topro-3 (Molecular Probes). Wells were washed and mounted using Pro-Long Anti-fade (Molecular Probes). Slides were analyzed by confocal microscopy.
The peptide then was tested to determine whether it was able to differentiate HT29 from HCT116 cells. In order to distinguish HT29 from HCT116 cells in our immunohistochemical assays, staining was carried out in the presence of the transcription factor, p53. Staining for the protein p53 is a way to visually discriminate HT29 from HCT116 cells, since p53 is mutated and accumulates in HT29 cells but is wild type in HCT116 cells and thus, is rapidly degraded. […] To test the ability of the fluorescein conjugated peptide (RPM-FITC) to preferentially bind HT29 cells, HT29 and HCT116 cells were stained with RPM-FITC. […] When a mixture of HT29 and HCT116 cells was incubated with RPM-FITC and concurrently analyzed for the presence of p53, cells with the highest level of p53 protein also bound RPM-FITC (FIG. 5A).
The ability of a molecule to translocate across the cell membrane is important for drug delivery. HT29 cells were incubated for 1 hour at either 4° C. or 37° C. in the presence of 100 uM RPM-FITC. After incubation, cells were washed, fixed with 2% paraformaldehyde, then incubated with an anti-FITC secondary antibody to amplify the fluorescence signal.

[5] = tested on: lung and liver cancer, grossly uninvolved lung, liver, and stomach; test: Peptide-binding assay on frozen tissue sections; set-up: species or system human; details: cryostat sections
Description: as §1
To determine whether RPM-FITC was able to bind cancers originated from tissues other than colon or to other normal tissues, a peptide-binding assay was performed on cryostat sections of lung and liver cancer, and grossly uninvolved lung, liver, and stomach. As a positive control, a section of colon tumor was stained in parallel with the other sections. […] Binding to HT29 Cells is Dependent on the Amino Acids, RPMC-C (SEQ ID NO: 136).

RPM-FITC: fluorescein conjugated peptide (RPM-FITC) (CPIEDRPMC; cysteine pairing not given here; also: fluorescein (FITC) conjugated, position not given here)
RPM-FITC staining of HCT116 cells [1]: little or no fluorescence
binding to adjacent normal colon tissue [2]: no binding
binding/staining of human colon tumor sections [3]: preferential binding; also recorded: bright staining
binding/staining of human colon tumor sections ([3]; listed as FITC-conjugated RPM): showed binding
localisation of peptide in HT29 cells ([4]; 4° C.): confined to the cell surface
localisation of peptide in HT29 cells ([4]; 37° C.): diffuse staining throughout the cells
RPM-FITC staining of HT29 cells ([4]; 1 hour at 4° C.): showed fluorescence
labeling of lung and liver cancer and uninvolved lung, liver, stomach [5]: no labeling

Source: patent US7452965B2, “Colon tumor specific binding peptides” (University of Utah Research Foundation, priority 2002, dated 2008)
